Values of other authors, collected in patent US8389778B2, “Preparation of mannitol modification III” (Aptuit (West Lafayette), LLC, priority 2007, dated 2013).

Row | Compound | stability of the hemihydrate (ambient conditions) | phase transformation of modification III into modification I on storage (kept dry, period of 5 years)
1 | OC[C@@H](O)[C@@H](O)[C@H](O)[C@H](O)CO [hemihydrate, Mannitol hemihydrate] | unstable under ambient conditions | 
2 | OC[C@@H](O)[C@@H](O)[C@H](O)[C@H](O)CO [modification III, mannitol] |  | did not transform into modification I over a period of 5 years
